Measured values reported in patent US9937250B2, “Immunogenic tumor associated stromal cell antigen peptides and methods of their use” (University of Pittsburgh—Of the Commonwealth System of …, priority 2011, dated 2018).

Test system: tumor-associated pericytes and VEC
Assay: Day 60 splenic CD8+ T cell IFN-γ response in mice cured of B16 by vaccination
Format: cell-based, HHD mice
Details: 60 days after tumor inoculation, IFN-γ ELISA (FIG. 12)
Source text: HHD mice bearing established day seven B16 melanomas were therapeutically vaccinated with peptides derived from the TASA DLK1 or RGS5 as described in FIG. 11B. Tumors regressed to a non-detectable level over the next two weeks. Sixty days after tumor inoculation, CD8^+ T cells were MACS-isolated from the spleens of these animals and evaluated for IFN-γ production (by ELISA) in response to pericytes and VEC (flow-sorted from day 19 untreated B16 tumors or tumor-uninvolved kidneys of B16-bearing HHD mice), as well as, HLA-A2^+ T2 cells (control or pulsed with the indicated peptides). *p<0.05 versus anti-class I mAb blockade (when evaluating responses against pericytes, VEC or B16 tumor cells) or T2 cells only (when evaluating anti-peptide responses). […]
Evaluation of Specific CD8^+ T Cell Responses in HHD Mice. MACS (Miltenyi Biotec) CD8^+ splenocytes were harvested (from 3 mice/group) 7 days after the second round of DC-based vaccination (i.e. day 21 after tumor inoculation) and analyzed for reactivity against unpulsed T2 cells, TBVA peptide-pulsed T2 cells, or day 19 (flow-sorted) B16-derived PDGFRβ^+CD31^negH-2K^b(neg) pericytes or PDGFRβ^negCD31^+H-2K^b(neg) VEC isolated as previously described (Zhao et al., Mol Ther., 19:805-814, 2011). […] After 48 h, supernatants were analyzed for mIFN-γ content by specific ELISA (BD-Biosciences; lower detection limit=31.3 pg/ml). […]

For LAALPHSCL (listed as Homo sapiens), which “Tc1 recognition of tumor pericytes/VEC by splenic CD8+ T cells of cured mice” value is on record?
Its value is “clear Tc1 recognition of tumor (but not tumor-uninvolved kidney) pericytes”.
